The results in this text go back to patent publication US11242334B2, “Heterocyclic compounds as kinase inhibitors, compositions comprising the heterocyclic compound, and methods of use thereof” (JS INNOPHARM (SHANGHAI) LTD, priority 2017, dated 2022).

SMILES strings stand for the structures.

Assay [1] addresses T1, human ERK2 (Homo sapiens, UniProt P28482).
T1 construct: recombinantly expressed as GST-tagged full-length protein purified from E. coli; GST; purchased Invitrogen PV3311; host or cells: E. coli
Nature of the assay: LanthaScreen TR-FRET enzymatic assay, ERK2. The following applies: IC50 values of ERK2 biochemical activity; 5 μM ATP, 400 nM ATF2-GFP substrate. The protocol: Compounds were tested in a LanthaScreen™ time-resolved fluorescence energy transfer (TR-FRET) enzymatic assay from Invitrogen. The assay used human ERK2 (Mitogen Activated Kinase 1, Invitrogen, Cat. PV3311) recombinantly expressed as GST-tagged full-length protein purified from E. coli and activated in vitro with MAP2K1. The substrate was a recombinant truncated version (residues 19-96) of ATF2 fused with Green Fluorescent Protein (Invitrogen, Cat. PV4445). Test compounds were prepared and diluted in DMSO in 3-fold serial dilutions to 100× of the final testing concentrations. The compounds were then further diluted to 4× by the kinase reaction buffer (Invitrogen, Cat. PV3189). The enzymatic reaction for compound testing was performed in a white 384-well polypropylene plate (Packard, Cat. 6005214) with a total reaction volume of 10 μl containing 20 ng/ml ERK2, 400 nM substrate, and 5 μM ATP that is around its Km. The assay started with loading 2.5 μl of ERK2 diluted in kinase reaction buffer to wells, followed by addition of equal volume of 4× compounds for 15-min incubation at the room temperature for pre-treatment. The enzymatic reaction was initiated by addition of 5 μl of mixture of the substrate and ATP prepared in kinase reaction buffer. After one hour reaction, 10 μl mixture of EDTA (final 10 mM) and terbium-labeled anti-pATF2 (pThr71) antibody (final 2 nM) (Invitrogen, Cat. PV4451) prepared in TR-FRET antibody dilution buffer (Invitrogen, Cat. PV3574) was added to stop the enzymatic reaction and produce TR-FRET signals. After 30 minutes of incubation at room temperature, the plate was read in Tecan Infinite F200 Pro with the following settings: Excitation 340 nm (30)/Emission1 495 nm (10)/Emission2 520 nm (25). The TR-FRET values were dimensionless numbers that were calculated as the ratio of the acceptor ([…]) signal to the donor (Terbium) signal. Percent of control was calculated as the percentage of compound-treated vs 1% DMSO vehicle-treated. The dose-response curves were generated and the ICsos were calculated by nonlinear sigmoid curve fitting using GraphPad Prism.
The IC50 values of ERK2 biochemical activity for the examples disclosed herein are listed in Table 3, A: ≤10 nM; B: >10 nM and ≤50 nM; C: >50 nM and ≤100 nM; D.>100 nM.
A general note: TR-FRET usually uses a lanthanide donor and a delayed reading to cut background.

Assay [2] relates to Colo205 cell line. Nature of the assay: Colo205 cell proliferation assay (MTT assay, WST-8 readout). The assay is classed as cell-based. The following applies: Homo sapiens; IC50 values of growth inhibition in Colo 205 cells; 72 hours. The protocol: Compounds disclosed herein were tested for the inhibition of ERK2 by a Colo205 cell proliferation assay commonly known as MTT assay. In this assay, a complete media was prepared by adding 10% fetal bovine serum to RPMI-1640 medium (Life technology). Colon cancer cells (Colo205 cell line) were added to each of 88 wells of a 96 well plate at a seeding density of 5,000 cells/well/90 μL. The cells were allowed to attach to the plate by incubating at 37° C. for 24 hours. The compound was dissolved in DMSO (SIGMA). A solution of test compound was prepared in complete media by serial dilution to obtain the following concentrations: 500 μM, 150 μM, 50 μM, 15 μM, 5 μM, 1.5 μM, 0.5 μM, 0.15 μM and 0.05 μM. The test compound solution (10 μL) was added to each of 80 cell-containing wells. The final concentrations of the compound were following: 50 μM, 15 μM, 5 μM, 1.5 μM, 0.5 μM, 0.15 μM, 0.05 μM, 0.015 μM and 0.005 μM. The final concentration of DMSO is 0.5%. To the 8 remaining cell-containing wells, only complete media (containing 0.5% DMSO) was added to form a control group in order to measure maximal proliferation. To the remaining 8 empty wells, complete media was added to for a vehicle control group in order to measure background. The plates were incubated at 37° C. for 72 hours. 10 μL WST-8 solution (DOJINDO, Cell Counting KIT-8) was added to each well. The plates were further incubated at 37° C. for 2 hours, and then read for the absorbance using a microplate reader at 450 nm.
The IC50 values of growth inhibition in Colo 205 cells for Compounds disclosed are listed in Table 3, A′: ≤0.5 μM; B′: >0.5 μM and ≤1 μM; C′: >1.0 μM and ≤5 uM; D′: >5 μM.
In general terms: Tetrazolium assays rely on reduction of a dye to a coloured formazan, in cell work by metabolically active cells.

T1 sequence (P28482 whole entry): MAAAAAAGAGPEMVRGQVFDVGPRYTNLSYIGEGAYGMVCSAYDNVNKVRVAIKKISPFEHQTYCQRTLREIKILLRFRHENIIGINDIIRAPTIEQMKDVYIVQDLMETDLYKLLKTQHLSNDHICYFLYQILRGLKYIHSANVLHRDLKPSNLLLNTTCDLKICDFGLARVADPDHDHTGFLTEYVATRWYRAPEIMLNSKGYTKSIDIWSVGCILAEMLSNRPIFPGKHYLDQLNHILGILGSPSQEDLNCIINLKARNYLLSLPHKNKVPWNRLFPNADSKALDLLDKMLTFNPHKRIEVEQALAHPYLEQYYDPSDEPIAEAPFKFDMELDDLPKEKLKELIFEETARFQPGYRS

Regarding `CC(C)(O)c1ccc(-c2n[nH]c3ccc(-c4ccn([C@H](CO)c5ccc(F)c(Cl)c5)c(=O)c4)cc23)cn1` [Example 20, (S)-1-(1-(3-chloro-4-fluorophenyl)-2-hydroxyethyl)-4-(3-(6-(2-hydroxypropan-2-yl)pyridin-3-yl)-1H-indazol-5-yl)pyridin-2(1H)-one], the 50% inhibitory concentration (IC50) in assay [1] is 10 to 50 nM; in assay [2], 1000 to 5000 nM.

In the case of `CC(C)(O)c1cc(-c2n[nH]c3ccc(-c4ccn([C@H](CO)c5ccc(F)c(Cl)c5)c(=O)c4)cc23)ccn1` [Example 21], the half-maximal inhibitory concentration (IC50) in assay [1] was less than 10 nM; in assay [2] it was 1000 to 5000 nM.

For the compound `O=c1cc(-c2ccc3[nH]ncc3c2)ccn1[C@H](CO)c1cccc(Cl)c1` [Example 22, (S)-1-(1-(3-chlorophenyl)-2-hydroxyethyl)-4-(1H-indazol-5-yl)pyridin-2(1H)-one], the IC50 in assay [1] is 10 to 50 nM; in assay [2] it was greater than 5000 nM.

As for `CCc1n[nH]c2ccc(-c3ccn([C@H](CO)c4cccc(Cl)c4)c(=O)c3)cc12` [Example 23, (S)-1-(1-(3-chlorophenyl)-2-hydroxyethyl)-4-(3-ethyl-1H-indazol-5-yl)pyridin-2(1H)-one], the IC50 in assay [1] was in the range of 50 to 100 nM; in assay [2] it was 1000 to 5000 nM.

As to `Cc1cc(-c2n[nH]c3ncc(-c4ccn([C@H](CO)c5ccc(Cl)c(F)c5)c(=O)c4)cc23)ccn1` [Example 24, (S)-1-(1-(4-chloro-3-fluorophenyl)-2-hydroxyethyl)-4-(3-(2-methylpyridin-4-yl)-1H-pyrazolo[3,4-b]pyridin-5-yl)pyridin-2(1H)-one], the concentration for half-maximal inhibition (IC50) in assay [1] fell in the range of 50 to 100 nM; in assay [2], 1000 to 5000 nM.

On to `Cc1cc(-c2n[nH]c3ccc(-c4ccn([C@H](CO)c5cc(F)cc(Br)c5)c(=O)c4)cc23)ccn1` [Example 26, (S)-1-(1-(3-bromo-5-fluorophenyl)-2-hydroxyethyl)-4-(3-(2-methylpyridin-4-yl)-1H-indazol-5-yl)pyridin-2(1H)-one], for which the IC50 in assay [1] is less than 10 nM; in assay [2] it was no more than 500 nM.

`O=c1cc(-c2ccc3[nH]nc(N4CCC(O)C4)c3c2)ccn1[C@H](CO)c1cccc(Cl)c1` (stereo partly drawn) [Example 27, 1-((S)-1-(3-chlorophenyl)-2-hydroxyethyl)-4-(3-(3-hydroxypyrrolidin-1-yl)-1H-indazol-5-yl)pyridin-2(1H)-one]: the 50% inhibitory concentration (IC50) is less than 10 nM in assay [1] and 1000 to 5000 nM in assay [2].

`Cc1cc(-c2n[nH]c3ccc(-c4ccn([C@H](CO)c5cc(Cl)ccc5F)c(=O)c4)cc23)ccn1` [Example 28, (S)-1-(1-(5-chloro-2-fluorophenyl)-2-hydroxyethyl)-4-(3-(2-methylpyridin-4-yl)-1H-indazol-5-yl)pyridin-2(1H)-one]: the figures for the IC50 in assay [1] and in assay [2] were less than 10 nM and no more than 500 nM, respectively.

Consider `Cc1cc(-c2n[nH]c3ccc(-c4cc[nH]c(=O)c4)cc23)ccn1` [Example 29, 4-(3-(2-methylpyridin-4-yl)-1H-indazol-5-yl)pyridin-2(1H)-one], for which the IC50 in assay [1] was less than 10 nM; in assay [2], 1000 to 5000 nM.

As to `Cc1cc(-c2n[nH]c3ccc(-c4ccn([C@H](CO)c5ccc(F)c(Cl)c5)c(=O)c4)cc23)ccn1` [Example 30, (S)-1-(1-(3-chloro-4-fluorophenyl)-2-hydroxyethyl)-4-(3-(2-methylpyridin-4-yl)-1H-indazol-5-yl)pyridin-2(1H)-one], the IC50 is less than 10 nM in assay [1] and no more than 500 nM in assay [2].

For `Cc1cc(-c2n[nH]c3ccc(-c4ccn([C@@H](CO)c5cccc(Cl)c5)c(=O)c4)cc23)ccn1` [Example 31, (R)-1-(1-(3-chlorophenyl)-2-hydroxyethyl)-4-(3-(2-methylpyridin-4-yl)-1H-indazol-5-yl)pyridin-2(1H)-one], the half-inhibitory concentration (IC50) is less than 10 nM in assay [1] and 1000 to 5000 nM in assay [2].

Take `Cc1cc(-c2n[nH]c3ccc(-c4ccn([C@H](CO)c5ccc(Cl)cc5)c(=O)c4)cc23)ccn1` [Example 32, (S)-1-(1-(4-chlorophenyl)-2-hydroxyethyl)-4-(3-(2-methylpyridin-4-yl)-1H-indazol-5-yl)pyridin-2(1H)-one]: the IC50 is less than 10 nM in assay [1] and no more than 500 nM in assay [2].

In the case of `Cc1cc(-c2n[nH]c3ccc(-c4ccn([C@H](CO)c5cc(F)cc(C(F)(F)F)c5)c(=O)c4)cc23)ccn1` [Example 33, (S)-1-(1-(3-fluoro-5-(trifluoromethyl)phenyl)-2-hydroxyethyl)-4-(3-(2-methylpyridin-4-yl)-1H-indazol-5-yl)pyridin-2(1H)-one], the figures for the half-inhibitory concentration (IC50) in assay [1] and in assay [2] were less than 10 nM and no more than 500 nM, respectively.

As to `CC(C)Oc1ccc(-c2n[nH]c3ccc(-c4ccn([C@H](CO)c5ccc(F)c(Cl)c5)c(=O)c4)cc23)cn1` [Example 34, (S)-1-(1-(3-chloro-4-fluorophenyl)-2-hydroxyethyl)-4-(3-(6-isopropoxypyridin-3-yl)-1H-indazol-5-yl)pyridin-2(1H)-one], the IC50 in assay [1] lay within 10 to 50 nM; in assay [2], 1000 to 5000 nM.

In the case of `Cc1cc(-c2n[nH]c3ccc(-c4ccn([C@H](CO)c5cccc(Cl)c5F)c(=O)c4)cc23)ccn1` [Example 35, (S)-1-(1-(3-chloro-2-fluorophenyl)-2-hydroxyethyl)-4-(3-(2-methylpyridin-4-yl)-1H-indazol-5-yl)pyridin-2(1H)-one], the IC50 in assay [1] is less than 10 nM; in assay [2], no more than 500 nM.

Take `Cc1cc(-c2n[nH]c3ccc(-c4ccn([C@H](CO)c5ccc(F)c(Br)c5)c(=O)c4)cc23)ccn1` [Example 36, (S)-1-(1-(3-bromo-4-fluorophenyl)-2-hydroxyethyl)-4-(3-(2-methylpyridin-4-yl)-1H-indazol-5-yl)pyridin-2(1H)-one]: the IC50 was less than 10 nM in assay [1] and no more than 500 nM in assay [2].

Consider `Cn1cc(-c2n[nH]c3ccc(-c4ccn([C@H](CO)c5ccc(F)c(Cl)c5)c(=O)c4)cc23)cn1` [Example 37, (S)-1-(1-(3-chloro-4-fluorophenyl)-2-hydroxyethyl)-4-(3-(1-methyl-1H-pyrazol-4-yl)-1H-indazol-5-yl)pyridin-2(1H)-one], for which the IC50 in assay [1] is less than 10 nM; in assay [2] it was no more than 500 nM.

`Cn1cc(-c2n[nH]c3ccc(-c4ccn([C@H](CO)c5ccc(Cl)c(F)c5)c(=O)c4)cc23)cn1` [Example 38, (S)-1-(1-(4-chloro-3-fluorophenyl)-2-hydroxyethyl)-4-(3-(1-methyl-1H-pyrazol-4-yl)-1H-indazol-5-yl)pyridin-2(1H)-one]: the IC50 was less than 10 nM in assay [1] and 500 to 1000 nM in assay [2].

Consider `Cn1cc(-c2n[nH]c3ccc(-c4ccn([C@H](CO)c5cc(F)cc(Br)c5)c(=O)c4)cc23)cn1` [Example 39, (S)-1-(1-(3-bromo-5-fluorophenyl)-2-hydroxyethyl)-4-(3-(1-methyl-1H-pyrazol-4-yl)-1H-indazol-5-yl)pyridin-2(1H)-one], for which the figures for the concentration for half-maximal inhibition (IC50) in assay [1] and in assay [2] were less than 10 nM and no more than 500 nM, respectively.

As for `CC(C)Oc1ccc(-c2n[nH]c3ccc(-c4ccn([C@H](CO)c5cc(F)cc(Br)c5)c(=O)c4)cc23)cn1` [Example 40, (S)-1-(1-(3-bromo-5-fluorophenyl)-2-hydroxyethyl)-4-(3-(6-isopropoxypyridin-3-yl)-1H-indazol-5-yl)pyridin-2(1H)-one], the IC50 in assay [1] was less than 10 nM; in assay [2], no more than 500 nM.

The IC50 is the concentration that inhibits the measured activity by half.
